Test results: the supplement of paper PMC11061612

What was measured:
Assay in all cases: Bliss excess, mean over the matrix (fraction); higher = more synergy
[1] = tested on: ME-180 (Cervical Carcinoma)
How it was run: (§1)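 After 24 hours at 37°C and 5% CO2 in 1536-well plates, cells in DMEM/F12 or RPMI plus 10% FBS received two-drug dose matrices for 72 hours. Viability came from CellTiter-Glo 2.0 luminescence and was scaled as inhibition, anchored at 0 by vehicle wells and at 1 by blank wells. Combination Emax is taken as the second-highest inhibition in the matrix, and Bliss excess as the observed combination effect less EA + EB − EA·EB, with EA and EB the single-agent effects.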

[2] = tested on: ML-2 (Acute Myeloid Leukemia)
How it was run: as §1

[3] = tested on: MOLT-4 (T-Lymphoblastic Leukemia)
How it was run: as §1

[4] = tested on: LC-1-sq (Squamous Cell Lung Carcinoma)
How it was run: as §1

[5] = tested on: MOG-G-UVW (Low Grade Glioma)
How it was run: as §1

COLO-679 (Melanoma) = tested on: COLO-679 (Melanoma)
How it was run: as §1

[6] = tested on: SW982 (Other Solid Carcinomas)
How it was run: as §1

[7] = tested on: NCI-H2122 (Lung Adenocarcinoma)
How it was run: as §1

[8] = tested on: MV-4-11 (Acute Myeloid Leukemia)
How it was run: as §1

[9] = tested on: NCI-H650 (Lung Adenocarcinoma)
How it was run: as §1

[10] = tested on: NCI-H1092 (Small Cell Lung Carcinoma)
How it was run: as §1

[11] = tested on: ALL-SIL (T-Lymphoblastic Leukemia)
How it was run: as §1

[12] = tested on: DU-145 (Prostate Carcinoma)
How it was run: as §1

[13] = tested on: NCI-H1838 (Lung Adenocarcinoma)
How it was run: as §1

[14] = tested on: Ca-Ski (Cervical Carcinoma)
How it was run: as §1

[15] = tested on: G-401 (Other Solid Carcinomas)
How it was run: as §1

[16] = tested on: OACM5-1 (Esophageal Adenocarcinoma)
How it was run: as §1

[17] = tested on: SW872 (Other Solid Carcinomas)
How it was run: as §1

[18] = tested on: HCC1937 (Breast Carcinoma)
How it was run: as §1

| Structure (SMILES) | Bliss excess [1] | Bliss excess [2] | Bliss excess [3] | Bliss excess [4] | Bliss excess [5] | Bliss excess (COLO-679 (Melanoma)) | Bliss excess [6] | Bliss excess [7] | Bliss excess [8] | Bliss excess [9] | Bliss excess [10] | Bliss excess [11] | Bliss excess [12] | Bliss excess [13] | Bliss excess [14] | Bliss excess [15] | Bliss excess [16] | Bliss excess [17] | Bliss excess [18] |
| --- | --- | --- | --- | --- | --- | --- | --- | --- | --- | --- | --- | --- | --- | --- | --- | --- | --- | --- | --- |
| CC1(C)CCC(CN2CCN(c3ccc(C(=O)NS(=O)(=O)c4ccc(NCC5CCOCC5)c([N+](=O)[O-])c4)c(Oc4cnc5[nH]ccc5c4)c3)CC2)=C(c2ccc(Cl)cc2)C1 [Venetoclax] + Cc1cc2ncnn2cc1Nc1ncc2c(n1)n(C1CCOCC1)c(=O)n2C [AZD7648] (first compound max 1 µM, 7x7, partner max 10 µM) | 0.0013 | 0.0057 | 0.0142 | 0.0004 | -0.0482 | -0.0363 | 0.0103 | 0.0311 | 0.0477 | -0.0489 | 0.0303 | -0.0022 | -0.0166 | 0.0538 | -0.0061 | -0.061 | -0.0269 | -0.0599 | -0.0733 |
| CC1(C)CCC(CN2CCN(c3ccc(C(=O)NS(=O)(=O)c4ccc(NCC5CCOCC5)c([N+](=O)[O-])c4)c(Oc4cnc5[nH]ccc5c4)c3)CC2)=C(c2ccc(Cl)cc2)C1 [Venetoclax] + CN(C)CCCOc1ccc(-c2ccc3ncc4c(c3c2)n(C2CCOCC2)c(=O)n4C)cn1 [AZD0156] (first compound max 1 µM, 7x7, partner max 1 µM) | 0.0092 | -0.0728 | 0.0196 | -0.0007 | 0.0408 | -0.0328 | -0.086 | 0.0112 | -0.0446 | -0.0194 | -0.0023 | -0.0012 | -0.0261 | 0.0303 | 0.0221 | -0.0712 | -0.0017 | 0.0025 | -0.0566 |
| CC1(C)CCC(CN2CCN(c3ccc(C(=O)NS(=O)(=O)c4ccc(NCC5CCOCC5)c([N+](=O)[O-])c4)c(Oc4cnc5[nH]ccc5c4)c3)CC2)=C(c2ccc(Cl)cc2)C1 [Venetoclax] + Cn1cnc2c(F)c(Nc3ccc(Br)cc3Cl)c(C(=O)NOCCO)cc21 [Selumetinib] (first compound max 1 µM, 7x7, partner max 3 µM) | -0.01 | 0.0747 | 0.021 | -0.0135 | 0.0564 | -0.0203 | -0.0722 | 0.0375 | -0.0022 | -0.0217 | -0.0691 | 0.0035 | -0.0121 | -0.0013 | -0.0038 | -0.0264 | 0.0243 | -0.0158 | -0.0392 |
| COc1cccc(OCCCN)c1-c1cc(Nc2cnc(C#N)cn2)n[nH]1 [Prexasertib] + CN(C)CCCOc1ccc(-c2ccc3ncc4c(c3c2)n(C2CCOCC2)c(=O)n4C)cn1 [AZD0156] (first compound max 1 µM, 7x7, partner max 1 µM) | -0.0255 | 0.003 | 0.0108 | -0.0038 | -0.0204 | 0.0127 | -0.0813 | -0.0115 | -0.0249 | -0.008 | -0.0561 | -0.0838 | -0.0405 | -0.0285 | -0.0373 | -0.0265 | -0.0235 | -0.0035 | 0.0409 |
| CC1(C)CCC(CN2CCN(c3ccc(C(=O)NS(=O)(=O)c4ccc(NCC5CCOCC5)c([N+](=O)[O-])c4)c(Oc4cnc5[nH]ccc5c4)c3)CC2)=C(c2ccc(Cl)cc2)C1 [Venetoclax] + C1CN(CCC1(C(=O)N[C@@H](CCO)C2=CC=C(C=C2)Cl)N)C3=NC=NC4=C3C=CN4 [Capivasertib] (first compound max 1 µM, 7x7, partner max 3 µM) | -0.0015 | 0.03 | 0.0315 | -0.0136 | -0.0404 | -0.0357 | -0.0523 | 0.0256 | 0.0474 | -0.0395 | 0.0236 | -0.0261 | -0.0493 | -0.0097 | -0.0153 | -0.105 | 0.0191 | -0.0588 | -0.0227 |
| CCc1c2c(nc3ccc(O)cc13)-c1cc3c(c(=O)n1C2)COC(=O)[C@]3(O)CC [SN-38] + O=C(c1cc(Cc2n[nH]c(=O)c3ccccc23)ccc1F)N1CCN(C(=O)C2CC2)CC1 [Olaparib] (first compound max 0.3 µM, 7x7, partner max 10 µM) | 0.0915 | 0.0633 | 0.0881 | 0.0716 | 0.036 | 0.005 | 0.0384 | – | 0.0486 | – | -0.0076 | 0.0795 | 0.0282 | – | 0.0458 | – | 0.0474 | 0.0634 | – |
| CC1(C)CCC(CN2CCN(c3ccc(C(=O)NS(=O)(=O)c4ccc(NCC5CCOCC5)c([N+](=O)[O-])c4)c(Oc4cnc5[nH]ccc5c4)c3)CC2)=C(c2ccc(Cl)cc2)C1 [Venetoclax] + CCN(CCO)CCCOc1ccc2c(Nc3cc(CC(=O)Nc4cccc(F)c4)[nH]n3)ncnc2c1 [AZD2811] (first compound max 1 µM, 7x7, partner max 1 µM) | 0.0083 | 0.0167 | -0.0368 | -0.0099 | -0.0186 | -0.0608 | -0.0257 | -0.0579 | 0.0071 | -0.0114 | 0.075 | -0.0059 | -0.0375 | 0.0204 | 0.0738 | -0.0473 | -0.0406 | -0.0179 | -0.0394 |
